Assay results taken from ChEMBL document CHEMBL1129281, “Effect of linking bridge modifications on the antipsychotic profile of some phthalimide and isoindolinone derivatives” (J Med Chem, 1996).

What was measured:
[1] = target: Serotonin 2 (5-HT2) receptor (Rattus norvegicus, UniProt P30994+P08909+P14842); assay: Inhibition of [3H]ketanserin binding at 5-hydroxytryptamine 2 receptor from rat frontal cortex.
Mus musculus = assay: In vivo inhibition of apomorphine-induced climbing response in mice.; assay type: functional
[2] = target: T1, 5-hydroxytryptamine receptor 1A (Rattus norvegicus, UniProt P19327); assay: Inhibition of [3H]8-OH-DPAT binding at serotonin 5-hydroxytryptamine 1A receptor from rat hippocampus tissue.; assay type: tissue-based
T1 sequence (P19327 whole entry): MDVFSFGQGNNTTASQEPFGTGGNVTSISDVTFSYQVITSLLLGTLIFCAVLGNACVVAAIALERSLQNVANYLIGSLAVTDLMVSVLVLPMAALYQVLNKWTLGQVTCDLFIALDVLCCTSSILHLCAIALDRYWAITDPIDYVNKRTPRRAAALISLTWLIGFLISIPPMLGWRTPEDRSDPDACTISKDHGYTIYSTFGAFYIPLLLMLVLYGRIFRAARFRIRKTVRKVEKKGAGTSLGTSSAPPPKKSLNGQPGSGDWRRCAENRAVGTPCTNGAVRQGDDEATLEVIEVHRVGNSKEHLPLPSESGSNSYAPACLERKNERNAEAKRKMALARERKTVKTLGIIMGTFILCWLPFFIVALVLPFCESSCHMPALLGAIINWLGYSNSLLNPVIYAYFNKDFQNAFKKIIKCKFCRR

IC50 [1]	IC50 [2]	Structure (SMILES)	ED50 (Mus musculus)
1.7 nM		O=C1c2ccccc2CN1CCOCCN1CCN(c2nsc3ccccc23)CC1	> 25 mg/kg
30 nM	54 nM	O=C1c2ccccc2C(=O)N1CCN1CCN(c2nsc3ccccc23)CC1	> 25 mg/kg
0.78 nM	4.7 nM	O=C1c2ccccc2C(=O)N1C/C=C/CN1CCN(c2nsc3ccccc23)CC1	12.7 mg/kg
5.4 nM	54 nM	O=C1c2ccccc2C(=O)N1CCOCCN1CCN(c2nsc3ccccc23)CC1	> 25 mg/kg
6 nM	13 nM	O=C1c2ccccc2C(=O)N1CCCN1CCN(c2nsc3ccccc23)CC1	> 25 mg/kg
1.8 nM	2 nM	O=C1c2ccccc2C(=O)N1CCCCCN1CCN(c2nsc3ccccc23)CC1	27 mg/kg
3.2 nM	24 nM	O=C1c2ccccc2C(=O)N1C/C=C\CN1CCN(c2nsc3ccccc23)CC1	> 25 mg/kg
43 nM	420 nM	O=C1c2ccccc2C(=O)N1CC#CCN1CCN(c2nsc3ccccc23)CC1	> 25 mg/kg

The remaining lines, values behind:

Structure (SMILES)	IC50 [1]	IC50 [2]	ED50 (Mus musculus)
O=C1c2ccccc2C(=O)N1CC1CC1CN1CCN(c2nsc3ccccc23)CC1 (configuration not stated)	4 nM	19 nM	22.9 mg/kg
O=C1c2ccccc2C(=O)N1CCCCN1CCN(c2nsc3ccccc23)CC1			1.1 mg/kg
O=C1c2ccccc2CN1C/C=C/CN1CCN(c2nsc3ccccc23)CC1	1.7 nM		17.6 mg/kg
O=C1c2ccccc2CN1CCN1CCN(c2nsc3ccccc23)CC1	9.8 nM	40 nM	> 25 mg/kg
O=C1c2ccccc2CN1C1CCC(N2CCN(c3nsc4ccccc34)CC2)CC1 (configuration not stated)	120 nM	140 nM	11.7 mg/kg
O=C1c2ccccc2CN1CCCCN1CCN(c2nsc3ccccc23)CC1			6.8 mg/kg
O=C1c2ccccc2CN1CCCCCN1CCN(c2nsc3ccccc23)CC1	2.2 nM	2.7 nM	20 mg/kg
O=C1c2ccccc2CN1C/C=C\CN1CCN(c2nsc3ccccc23)CC1	5.5 nM		13.9 mg/kg
O=C1c2ccccc2CN1CCCN1CCN(c2nsc3ccccc23)CC1	13 nM	390 nM	> 25 mg/kg
O=C1c2ccccc2CN1CC#CCN1CCN(c2nsc3ccccc23)CC1	18 nM		> 25 mg/kg
O=C(CCCN1CCC(O)(c2ccc(Cl)cc2)CC1)c1ccc(F)cc1 [HALOPERIDOL]			2 mg/kg
